This is an account of results in patent US20100040623A1, “NEURITOGENIC AND NEURONAL SURVIVAL PROMOTING PEPTIDES DERIVED FROM THE FAMILY OF S-100 PROTEINS” (priority 2005, published 2010).

The test system of test [1] is focal brain injury on the right fronto-parietal cortex. The experiment in a line: Traumatic brain injury (cryolesion): TUNEL, GFAP, PCNA. It is filed as in vivo, Rats and mice. As to conditions: 10 mg/kg s.c. at day -1, 1 and 2; post-lesion day 4. As for the experimental part:
A focal brain injury on the right fronto-parietal cortex was made by applying a piece of dry-ice (−78° C.) directly onto the skull for 30 seconds in mice and 60 seconds in rats, as previously described in details (Penkowa et al., 2003).
Histochemistry and immunohistochemistry were performed on sections cut from organs taken from fixated animals. Rats and mice were deeply anesthetized with Brietal and flushed by cardiac perfusion with saline containing heparine (0.9% NaCl, 3 ml/L 5000IU heparine) for 2 minutes followed by fixation with Zamboni's fixative (pH 7.4) for 4-8 minutes depending on the size of the animal. For immunohistochemical investigation, brain were dissected and postfixed in Zamboni's for 2-3 hours, dehydraded in graded alcohol followed by xylol and subsequently embedded in paraffin before being cut in 3 μm frontal sections throughout the entire area of the cryo lesion. For heat-induced epitope retrieval, the sections were boiled in citrate buffer (pH 6 or 9) in a microwave oven for 10 minutes followed by incubation in 10% goat serum (In Vitro, Fredensborg, DK) or donkey serum (code BP 005.1; The Binding Site, Birmingham, UK) in tris buffered saline (TBS)/Nonidet P-40 (0.01%) for 30 minutes at room temperature. Sections with mouse tissue used for incubation with monoclonal mouse-derived antibodies were also incubated with Blocking Solutions A+B from the HistoMouse-SP kit to quench endogenous mouse IgG (Zymed, Calif., USA).
Following treatment as described above, sections were incubated overnight at 5° C. with one of the following primary antibodies: polyclonal rabbit anti-cow glial fibrillary acidic protein (GFAP) 1:250 (a marker for astrocytes; DakoCytomation); monoclonal mouse anti-rat proliferating cellular nuclear antigen (PCNA) 1:10 (marking proliferating cell nuclear antigen/cell proliferation; DakoCytomation). The primary antibody was detected with biotynilated secondary antibodies, incubated with streptavidinbiotin-peroxidase complex for 30 min.
Terminal deoxynucleotidyl transferase (TdT)-mediated deoxyuridine triphosphate (dUTP)-biotin nick end labelling (TUNEL) was performed using the Fragment End Labeling (FragEL™) Detection Kit (Calbiochem, USA, code QIA33). The FragEL kit contains all the materials used below and each step was performed according to the manufacturer's recommendations. The tissue was processed and rehydrated as mentioned above, and sections were incubated with 20 µg/ml proteinase K for 20 min to strip off nuclear proteins. After immersion in equilibration buffer for 20 min, sections were incubated with TdT and biotin-labeled deoxynucleotids (dNTP-biotin) in a humified chamber at 37° C. for 1.5 hr. This was followed by wash buffer and the stop solution for 5 min at room temperature to stop the reaction. After washing in TBS and incubation in blocking buffer for 10 min, the sections were incubated with Peroxidase-Streptavidin for 30 min and afterwards, DAB was used as chromogen. The sections were counterstained with methyl-green. Negative control sections were treated similarly but incubated in the absence of TdT enzyme or dNTP-biotin or Peroxidase-Streptavidin. We also compared our sections with positive control slides provided in the FragEL Detection Kit. Furthermore, TUNEL was compared with other stainings for apoptosis (activated caspase-3, cytochrome-c and TNF[…]-R1). In addition, the morphologic criteria for apoptosis, i.e. cell shrinkage, formation of apoptotic bodies, membrane blebbing, no loss of cellular integrity, compaction of chromatin into uniformly dense masses, were evaluated.
In addition to morphological evaluation, quantification (cellular counts) of some of the variables, i.e. GFAP-positive cells, the area of GFAP-immunoreactivity, % of TUNEL-positive cells, % of proliferating cells, were analyzed. The analysis was carried out from the penumbra area of 3 μm brain sections for statistical analysis of the results. […]

For the next test, the system named is cerebellar (CGN) neurons. The experiment in a line: Neurite outgrowth from primary cerebellar neurons. The format is cell-based, Wistar rat. As to conditions: treated with various concentrations of peptide for 24 hours. The procedure:
(§1) Dissociated hippocampal and cerebellar (CGN) neurons were isolated from Wistar rat embryos at embryonic day 19 or newborn rats as previously described by Rønn et al. (1999). Briefly, hippocampus was isolated from the brain in ice cold modified Krebs Ringer solution, cleared of blood vessels, roughly homogenised by chopping and then trypsinised. The dissociated cells were washed in the presence of DNAse 1 and soybean trypsin inhibitor. Postnatal hippocampal neurons were plated at a density of 10,000 cells/cm^2 on uncoated 8-well permanox Lab-Tek chamber slides in Neurobasal medium supplemented with 0.4% (w/v) bovine serum albumin (BSA; Sigma-Aldrich), 2% (v/v) B27 Neurobasal supplement, 1% (v/v) glutamax, 100 U/ml penicillin, 100 μg/ml streptomycin and 2% 1 M HEPES (all from Gibco, BRL). After 24 hours, the neurons were fixed with 4% (v/v) formaldehyde for 20 minutes and thereafter immunostained using primary rabbit antibodies against GAP-43 and Alexa Fluor secondary goat anti-rabbit Ig antibodies. Images of at least 200 neurons for each group in each individual experiment were obtained systematically by computer assisted fluorescence microscopy as previously described (Rønn et al., 2000). Briefly, a Nikon Diaphot inverted microscope with a Nikon Plan 20× objective (Nikon, Tokyo, Japan) coupled to a video camera (Grundig Electronics, Germany) was used for recordings. A software package Prima developed at the Protein Laboratory (Copenhagen, Denmark) was used to make a stereologically based determination of neurite length (Rønn et al., 2000).
(§2) Neuronal cell cultures were treated with various concentrations of a peptide for 24 hours, and the average neurite length was evaluated as described above. […] Thus peptide segments number 3 and number 6 from various members of the S100 protein family may represent potent pharmacological tools to induce neuronal differentiation and axon regeneration.

For test [2], the system named is primary hippocampal neurons. The experiment in a line: Neurite outgrowth from primary hippocampal neurons. The following applies: for neurite outgrowth from hippocampal primary neurons (average neurite length): treated with various concentrations of peptide for 24 hours; for stimulation of neurite outgrowth in vitro (conclusion): summary statement. The format is cell-based, Wistar rat. The procedure:
as §1, §2

The test system of a further test is hippocampal neurons. As to conditions: Novitskaya et al., 2000; cited from earlier work.
The next test has as its system CREB. The experiment in a line: Phosphorylation of CREB in primary hippocampal neurons (PAGE method). The following applies: neurons cultured 6 hours, stimulated 15 minutes. The format is cell-based. As for the experimental part:
(§3) Primary hippocampal neurons cultured for 6 hours were stimulated with H3 or H6 for 15 minutes. Thereafter the phosphorylation level of the three intracellular messengers involved in neurite outgrowth and survival, Akt, CREB, and ERK, was determined using the PAGE method.

Test [3] relates to cultured hippocampal neurons. The experiment in a line: Intracellular Ca2+ concentration, fura-2 loaded neurons. The format is cell-based. As to conditions: fura-2 ratiometric dye.
For test [4], the system named is kainic acid (KA)-induced toxicity. The experiment in a line: Kainic acid-induced toxicity (seizures, mortality). The following applies: peptide 10 mg/kg daily from day -2; for amount of seizures: 20 mg/kg KA; for profile of seizures (severity): 30 mg/kg KA. The format is in vivo, Male C57BL/6J mice. As for the experimental part: Male C57BL/6J mice were injected with 10 mg/kg H3 or H6 daily starting from day-2 prior to kainic acid treatment. At day 0 the animals were injected 30 mg/kg KA in order to induce severe seizures, or 20 mg/kg KA in order to induce mild seizures and prevent excessive mortality. Latency and seizure severity were scored for 2 h postinjection by using a numerical scale of 0 to 6: 0—immobility; 1—facial automatism; 2—head nodding; 3—forelimb clonus; 4—rearing; 5—generalized convulsions; 6—death. Control animals received s.c injection of vehicle.

In the next test the test system is ERK. The experiment in a line: Phosphorylation of ERK in primary hippocampal neurons (PAGE method). The format is cell-based. As to conditions: neurons cultured 6 hours, stimulated 15 minutes. As for the experimental part:
as §3

For a further test, the system named is Akt. The experiment in a line: Phosphorylation of Akt in primary hippocampal neurons (PAGE method). The format is cell-based. The following applies: neurons cultured 6 hours, stimulated 15 minutes. As for the experimental part: as §3
In another test the test system is sciatic nerve crush. The experiment in a line: Functional recovery after sciatic nerve crush (Sciatic Function Index). The format is in vivo, Wistar rats. The following applies: 10 mg/kg daily for 18 days. As for the experimental part:
Nerve crush of sciatic nerve was performed as follows. Before surgery, animals were anesthetized with subcutaneous injection of a Fenthanil/Droperidol/Medazolam (0.8 ml per 100 g). The right hind limb was shaved and swabbed with antiseptic solution. A longitudinal cutaneous incision was made in the back of the thigh. Dissection was carried out along a plane separating the hamstring and gluteal muscles to expose the sciatic nerve. Careful dissection was performed to isolate the sciatic nerve from the surrounding connective tissue over a length of 2 to 2.5 cm. The sciatic nerve was unilaterally crushed twice in the same place (0.5 cm upper trifurcation) for a 30 sec using a locking surgical needle holder. The place of the crush was labelled with 5-0 suture material attached to the epineurium. […] The bottom of the corridor was lined with paper, upon which the hind pawprints of the rat were recorded. […] Several prints of each foot were inspected, and the best corresponding pair of prints from experimental (E) and normal (N) legs were measured to the nearest millimeter, using a caliper. Three footprint parameters were measured: distance from the heel to the third toe, print length (PL), the distance between the first and fifth toe, toe spread (TS), and distance between the second and fourth toe, the intermediary toe spread (IT). […]

In the case of “DEAAFQKLMSNLD [A4H4, tetrameric peptide (hekatone) representing region 4 of S100A4]”, in test [1], the “proliferation of neural progenitor cells” value is “strongly induced proliferation”.
Take “KQLLTKELANTIKNIK [A12H3, tetrameric peptide (hekatone) representing region 3 of S100A12]”: in the test with cerebellar (CGN) neurons, the “neurite outgrowth from cerebellar primary neurons (average neurite length)” value is listed as “strongly induced neurite outgrowth”. For the same substance, the “neurite outgrowth from hippocampal primary neurons (average neurite length)” value in test [2] was “strongly induced neurite outgrowth”.
On to “S100A4: S100 family Ca2+-binding protein S100A4 (also termed Mts1)”, for which the “neurite outgrowth in hippocampal neurons in vitro” value with hippocampal neurons is on record as “potent promoter of neurite outgrowth”.
Take “HYHTHKE [A12H6, tetrameric peptide (hekatone) representing region 6 of S100A12]”: the “stimulation of neurite outgrowth in vitro (conclusion)” value (“stimulation of neurite outgrowth” for short) in test [2] is “potent stimulators of neurite outgrowth”.
On to “NEFFEGFPDKQPRKK [A4H6, tetrameric peptide (hekatone) representing region 6 of S100A4]”, for which the “phosphorylation level of CREB” value in the test with CREB was “significantly increased phosphorylation”. Besides, in [3], the “level of intracellular Ca2+ ([Ca2+]i)” value was “significantly increased”. In test [4], the amount of seizures result is “decreased the amount of seizures” and the “profile of seizures (severity)” value is recorded as “towards less severe seizures types”. The “phosphorylation level of ERK” value in the test with ERK is recorded as “significantly increased phosphorylation”. Further, the “neurite outgrowth from cerebellar primary neurons (average neurite length)” value in the test on cerebellar (CGN) neurons is given as “strongly induced neurite outgrowth”. Besides, in test [1], the “area of GFAP-immunoreactivity (astrogliosis)” value is recorded as “increase”; the “cell death (apoptosis, DNA fragmentation/TUNEL) in the cortex induced by cryolesion” value is “protected cells in the cortex from cell death”; the “number of GFAP-positive cells (astrogliosis)” value is listed as “increase”. Besides, the “phosphorylation level of Akt” value in the test on Akt is reported as “significantly increased phosphorylation”. In [2], the “stimulation of neurite outgrowth” value was “potent stimulators of neurite outgrowth” and the “neurite outgrowth from hippocampal primary neurons (average neurite length)” value was “strongly induced neurite outgrowth”.
Consider “KELLTRELPSFLGKRT [A4H3, tetrameric peptide (hekatone) representing region 3 of S100A4]”, for which, in the test with CREB, the “phosphorylation level of CREB” value is on record as “significantly increased phosphorylation”. Further, the “level of intracellular Ca2+ ([Ca2+]i)” value in test [3] is “but not H3 significantly increased”. Also, in test [4], the amount of seizures entry is recorded as “decreased the amount of seizures” and the “profile of seizures (severity)” value is given as “towards less severe seizures types”. In addition, the “phosphorylation level of ERK” value with ERK was “significantly increased phosphorylation”. Further, in the test with sciatic nerve crush, the “recovery of the motor function of the injured limb (SFI)” value is “strongly promoted the recovery”. For the same substance, the “neurite outgrowth from cerebellar primary neurons (average neurite length)” value with cerebellar (CGN) neurons is recorded as “strongly induced neurite outgrowth”. Also, in [1], the “area of GFAP-immunoreactivity (astrogliosis)” value is listed as “increase”; the “cell death (apoptosis, DNA fragmentation/TUNEL) in the cortex induced by cryolesion” value is “protected cells in the cortex from cell death”; the “number of GFAP-positive cells (astrogliosis)” value is “increase”. The “phosphorylation level of Akt” value in the test on Akt is recorded as “significantly increased phosphorylation”. In addition, in test [2], the “stimulation of neurite outgrowth” value was “potent stimulators of neurite outgrowth” and the “neurite outgrowth from hippocampal primary neurons (average neurite length)” value is reported as “strongly induced neurite outgrowth”.
